From patent US8980887B2, “2-aryl imidazo[1,2-a]pyridine-3-acetamide derivatives, preparation methods and uses thereof” (Institute of Pharmacology, priority 2010, dated 2015)

Assays:
mice [1] = test: Mice tail suspension test; assay type: in vivo
Description: Experimental mechanism: mice tail suspension test was an acute behavioral despair model established by Steru et al (1985). […] This model was easy in operation, with good predictability, and was the most popular model for screening antidepressants. 1) Experimental device: an experimental frame with spacing boards which dividing the experimental frame into 2 experimental chambers (25×25×35 cm). A clamp is mounted on a through cross rod in the chamber. Male Kunming mice weighing 20-25 g. The mice were intragastrically administered with Compound 8, vehicle (distilled water, DW) or positive control drug (desipramine, DMI). After 1 h, wrap adhesive tape around the mouse's tail three quarters of the distance from the base of the tail and then suspend the animals by passing the suspension hook through the adhesive tape 5 cm above the table. The duration of immobility in the last 4 min of total 6 min test was recorded.

mice [2] = test: Mice open field spontaneous locomotor activity test; assay type: in vivo; conditions: intragastric
Description: Experimental mechanism: the aim was to observe the effects of drugs on central nervous excitation, so as to exclude false positive reactions of anxiolytic or antidepressant effects caused by central nervous excitation.
1) Experimental device: the mice open field box was a colorless transparent organic glass box (30×36×25 cm), which bottom surface was divided into 9 lattices.
2) Experimental operation: Compound 8(8^#, YL-IPA08), Compound 10(10^#, YL-IPA10), Compound 11(11^#, YL-IPA11) and Compound 13(13^#, YL-IPA13) (separately having three dose groups of 0.03, 0.3, 3 mg/kg) and blank control (distilled water, DW) were administered intragastrically, and the test started after 55 min. During test, the mice were placed in the central area of the open field spontaneous locomotor activity observation box, started timing immediately, the spontaneous activities of mice within 5 min were recorded artificially (observation indexes: number of rearings, number of crossings).

[3] = biological target: TSPO protein separated and purified from rat heart (Rattus norvegicus (Rat), UniProt P16257); test: TSPO and radioligand (3H-PK11195) competitive binding test; conditions: for Inhibition rate (%): n = 6 times
Description: In the present test, TSPO protein separated and purified from rat heart was used as screening target, via competitive binding test with radioligand (^3H-PK11195), to screen TSPO ligand compounds.
Wister rats, 220-260 g, female and male, were sacrificed by decapitation and the rat heart were rapidly separated, weighed and to which homogenized in 10 times volume of Tris-HCl buffer solution (50 mM Tris-HCl, 5 mM MgCl2, 1 mM EDTA, 0.5% (W/V) BSA, 1 mM PMSF, 3 μg/ml proteinase inhibitor, 0.1% NaN3, 0.32M sucrose, pH 7.4) at 15,000 rpm for 30 s, total 5 times. The homogenate was centrifuged under 1000×g for 10 minutes and the supernatant was then centrifuged under 30000×g for 20 minutes. The precipitate was collected, and resuspended with 10 times volume of Tris-HCl buffer solution (pH 7.4) relative to the original weight, then centrifuged under 30000×g for 20 minutes. The precipitate was washed with the same buffer solution, centrifuged under 30000×g for 20 minutes and the precipitate was suspended with the above buffer solution. After sub-packaged (the whole operation procedures were performed under ice bath), the product was stored at −80° C.
3) Competitive Binding Test of Drug to the Receptor (Rat Heart TSPO) and Radioligand (^3H-PK11195):
(1) tubes were placed in reaction condition of 30° C.
(2) all tubes were added with 20 μg of receptor protein in order;
(3) the test tubes were added in order with 20 μL of drugs in certain concentrations;
(4) the non-specific binding tubes were added with 20 μL of non-tagged ligand (PK11195), the final concentration of the non-tagged ligand was 0.1 mM, pre-reacted for 30 min;
(5) all tubes were added in order with 25 μL ^3H-PK11195, the final concentration of the labeled ligand was 1.5 nM;
(6) Tris-HCl Buffer pH7.4 was used to complement the reaction volumes of all tubes to reach 200 μL;
(7) the reaction was performed under 30° C. reaction condition for 1 h;
(8) Then samples were applied to 49-type glass fibre filter, vacuum suction filtered, then washed with 2 ml ice-cold Tris-HCl buffer solution (50 mM Tris-HCl buffer solution, 1 mM EDTA, 5 mM MgCl2, 1 mM PMSF, 0.1% NaN3, 3 μg/ml proteinase inhibitor, pH 7.4). The filter was dried and placed in a scintillation vial with 1 ml of scintillation fluid. The radio-activity was measured by a scintillation counter.

mice [4] = test: Mice elevated plus maze test; assay type: in vivo
mice [5] = test: Blocking effects of TSPO antagonist PK11195 on Compound 8 antidepressant activity in mice tail suspension test; assay type: in vivo; conditions: 3 mg/kg, ip
Description: The optimum dose (0.1 mg/kg) of YL-IPA08 in antidepressant effect of mice in tail suspension model was used to perform drug antagonism test, and the method was identical to that of Example 43, except that PK11195 group and PK11195+Compound 8 antagonism group with single intraperitoneal injection (ip) were added, wherein the antagonism group was administered by intraperitoneal injection with PK11195 simultaneously when Compound 8 was intragastrially administered.
Statistic method: the results were expressed in mean±SEM. The result was determined by two-way analysis of variance, and Bonferroni test was used for group comparison.

[6] = doses 0.03, 0.3, 3 mg/kg, 55 min after dosing, 5 min observation
[7] = 9 gradient concentrations, plotting and fitting

| Compound | Inhibition rate (%) ([3]; 1 × 10^−5M) | Inhibition rate (%) ([3]; 1 × 10^−7M) | Inhibition rate (%) ([3]; 1 × 10^−9M) | melting point [°C] | also measured |
| --- | --- | --- | --- | --- | --- |
| CCN(Cc1ccccn1)C(=O)Cc1c(-c2ccc(Cl)c(Cl)c2)nc2cc(C)ccn12.Cl [Compound 8, N-ethyl-N-(2-pyridinylmethyl)-2-(3,4-dichlorophenyl)-7-methylimidazo[1,2-a]pyridine-3-acetamide.hydrochloride] | 100 | 89 | 30 | 217 to 220 | optimum dose in antidepressant effect (mice [1]; mice tail suspension model): 0.1 mg/kg; number of rearings, number of crossings (open field spontaneous activity) versus control (mice [2]; [6]): equivalent to those of the control |
| CCN(Cc1ccncc1)C(=O)Cc1c(-c2ccc(Cl)c(Cl)c2)nc2cc(C)ccn12.Cl [Compound 10, N-ethyl-N-(4-pyridinylmethyl)-2-(3,4-dichlorophenyl)-7-methylimidazo[1,2-a]pyridine-3-acetamide.hydrochloride] | 100 | 85 | 23 | 250 to 252 | number of rearings, number of crossings (open field spontaneous activity) versus control (mice [2]; [6]): equivalent to those of the control |
| COCCN(Cc1ccccn1)C(=O)Cc1c(-c2ccc(Cl)c(Cl)c2)nc2cc(C)ccn12.Cl [Compound 11, N-(2-methoxyethyl)-N-(2-pyridinylmethyl)-2-(3,4-dichlorophenyl)-7-methylimidazo[1,2-a]pyridine-3-acetamide.hydrochloride] | 100 | 65 | 29 | 236 to 238 | number of rearings, number of crossings (open field spontaneous activity) versus control (mice [2]; dose 3 mg/kg): equivalent to the control; number of rearings, number of crossings (open field spontaneous activity) versus control (mice [2]; doses 0.03 and 0.3 mg/kg): lower than the control |
| CCN(Cc1ccccc1)C(=O)Cc1c(-c2ccc(C)cc2)nc2cc(C)ccn12 [Compound 13, N-benzyl-N-ethyl-2-(4-methylphenyl)-7-methylimidazo[1,2-a]pyridine-3-acetamide] | 97 | 89 | 42 | 220 to 222 | number of rearings, number of crossings (open field spontaneous activity) versus control (mice [2]; [6]): apparently lower than the control; IC50 [3, 7]: 6.99 nM; Ki [3, 7]: 2.97 nM; all elevated plus maze indexes versus control (mice [4]; mice, dose 0.03, 0.3, 3 mg/kg): significantly lower than the control |
| COCCN(CCN1CCOCC1)C(=O)Cc1c(-c2ccc(C)cc2)nc2cc(C)ccn12.Cl [Compound 25, N-(2-methoxyethyl)-N-(2-morpholinylethyl)-2-(4-methylphenyl)-7-methylimidazo[1,2-a]pyridine-3-acetamide.hydrochloride] | 31 | 0 | 0 | 165 to 167 | – |
| COCCN(CCN1CCOCC1)C(=O)Cc1c(-c2ccc(C)cc2)nc2ccc(C)cn12.Cl [Compound 26, N-(2-methoxyethyl)-N-(2-morpholinylethyl)-2-(4-methylphenyl)-6-methylimidazo[1,2-a]pyridine-3-acetamide.hydrochloride] | 48 | 1 | 0 | 245 to 247 | – |
| CCN(Cc1ccncc1)C(=O)Cc1c(-c2ccc(C)cc2)nc2ccc(C)cn12.Cl [Compound 27, N-ethyl-N-(4-pyridinylmethyl)-2-(4-methylphenyl)-6-methylimidazo[1,2-a]pyridine-3-acetamide.hydrochloride] | 91 | 65 | 0 | 222 to 224 | – |
| CCN(Cc1ccncc1)C(=O)Cc1c(-c2ccc(Cl)cc2)nc2ccc(C)cn12.Cl [Compound 28, N-ethyl-N-(4-pyridinylmethyl)-2-(4-chlorophenyl)-6-methylimidazo[1,2-a]pyridine-3-acetamide.hydrochloride] | 84 | 33 | 0 | 229 to 231 | – |
| CCC(C)N(C)C(=O)c1cc2ccccc2c(-c2ccccc2Cl)n1 (centres unmarked) [PK11195] | – | – | – | – | immobility time in mice tail suspension test, single administration versus control (mice [5]): no significant influence |
| CNCCCN1c2ccccc2CCc2ccccc21 [desipramine, reference compound] | – | – | – | – | minimum effective dose to generate antidepression activity (mice [1]; mice tail suspension test): 30 mg/kg |
| CN1C(=O)CN=C(c2ccccc2)c2cc(Cl)ccc21 [diazepam, reference compound] | – | – | – | – | minimum effective dose for generating anxiolytic-like effects (mice [4]; mice elevated plus maze, ip): 2 mg/kg |
